From patent US8524665B2, “Use of secretin in treatments of disorders associated with the amygdala” (The McLean Hospital Corporation, priority 2003, dated 2013)

Assays:
clinical = conditions: human, in vivo, iv, 0.4 ug/kg
Experimental: Upon entering the scanner, an […] was started in an antecubital vein and subjects were randomly assigned to receive either placebo (saline) or RG1068 (synthetic human secretin). Drug was administered at 0.4 μg/kg via the […] over 1 min. A 3-way stop-clock device with a heparinized line was used to collect blood samples immediately preceding the infusion of RG1068 or placebo and at variable points post infusion for drug pharmacokinetic analysis. Vital signs were monitored for at least 20 minutes after infusion. Prior to the infusion, subjects completed three affective challenge paradigms which had been explained to them before entering the scanner. Subjects completed the same paradigms one hour following infusion with either placebo or RG1068 for pre/post comparison (FIG. 1).
Blood samples were taken over the first 60 minutes post dosing, and samples from subjects receiving RG1068 were used to quantify secretin blood levels. […] Both the Cmax and the elimination rate are consistent with values observed after similar secretin infusions in adults (Christ et al., 1988). Whole brain T2 measures were obtained to verify that no global metabolic effect occurred with the administration of secretin.

amygdala [1] = conditions: healthy subjects; cited from earlier work
amygdala [2] = conditions: depressed patients, versus baseline evaluation; cited from earlier work

Molecule `CC(C)C[C@H](NC(=O)CNC(=O)[C@H](CCC(N)=O)NC(=O)[C@H](CC(C)C)NC(=O)[C@H](CC(C)C)NC(=O)[C@H](CCCNC(=N)N)NC(=O)[C@H](CCC(N)=O)NC(=O)[C@H](CC(C)C)NC(=O)[C@H](CCCNC(=N)N)NC(=O)[C@H](C)NC(=O)CNC(=O)[C@H](CCC(=O)O)NC(=O)[C@H](CCCNC(=N)N)NC(=O)[C@H](CC(C)C)NC(=O)[C@H](CCCNC(=N)N)NC(=O)[C@H](CO)NC(=O)[C@H](CC(C)C)NC(=O)[C@H](CCC(=O)O)NC(=O)[C@H](CO)NC(=O)[C@@H](NC(=O)[C@H](Cc1ccccc1)NC(=O)[C@@H](NC(=O)CNC(=O)[C@H](CC(=O)O)NC(=O)[C@H](CO)NC(=O)[C@@H](N)Cc1c[nH]cn1)[C@@H](C)O)[C@@H](C)O)C(=O)N[C@H](C(N)=O)C(C)C` [Secretin, secretin] has a Cmax (clinical) of 5.1 ng/mL and a half-life (clinical) of 3.7 min.

For `C[C@H](N)Cc1ccccc1` [dextroamphetamine], the “amygdalar responsivity to facial affect” value (amygdala [1]) is given as “increased amygdalar responsivity”.

For `COc1ccc(C(CN(C)C)C2(O)CCCCC2)cc1` (stereo not shown) [venlafaxine], the “amygdalar activation to positive stimuli after treatment” value (amygdala [2]) is listed as “significant increase in activation”.
